Results: a compilation of properties of binary mixtures (doi:10.1016/j.molliq.2014.08.031)

Assay: xn = mol fraction of the nth substance listed
Settings: 101 kPa

CCCC[n+]1ccn(C)c1.CS(=O)(=O)[O-] + O
Settings | electrical conductivity [S/m] | viscosity [mPa·s]
313.15 K, x2 = 0.5596 | – | 26.8
313.15 K, x2 = 0.6542 | – | 17.83
313.15 K, x2 = 0.7015 | – | 14.43
313.15 K, x2 = 0.704 | 1.07 | –
313.15 K, x2 = 0.7495 | – | 11.11
313.15 K, x2 = 0.785 | 1.89 | –
313.15 K, x2 = 0.796 | 1.98 | –
313.15 K, x2 = 0.8016 | – | 8.17
313.15 K, x2 = 0.8521 | – | 5.48
313.15 K, x2 = 0.861 | 3.55 | –
313.15 K, x2 = 0.9254 | – | 2.67
313.15 K, x2 = 0.929 | 5.27 | –
313.15 K, x2 = 0.9503 | – | 1.854
313.15 K, x2 = 0.951 | 5.76 | –
313.15 K, x2 = 0.968 | 5.4 | –
313.15 K, x2 = 0.975 | – | 1.148
314.15 K, x1 = 0.004 | 1.61 | –
314.15 K, x1 = 0.008 | 2.86 | –
314.15 K, x1 = 0.019 | 4.58 | –
314.15 K, x2 = 0.704 | 1.1 | –
314.15 K, x2 = 0.785 | 1.96 | –
314.15 K, x2 = 0.796 | 2.04 | –
314.15 K, x2 = 0.861 | 3.71 | –
314.15 K, x2 = 0.929 | 5.42 | –
314.15 K, x2 = 0.951 | 5.97 | –
314.15 K, x2 = 0.968 | 5.53 | –
315.15 K, x1 = 0.004 | 1.64 | –
315.15 K, x1 = 0.008 | 2.91 | –
315.15 K, x1 = 0.019 | 4.65 | –
315.15 K, x2 = 0.704 | 1.14 | –
315.15 K, x2 = 0.785 | 2.02 | –
315.15 K, x2 = 0.796 | 2.11 | –
315.15 K, x2 = 0.861 | 3.75 | –
315.15 K, x2 = 0.892 | 4.58 | –
315.15 K, x2 = 0.929 | 5.54 | –
315.15 K, x2 = 0.951 | 6.11 | –
316.15 K, x1 = 0.004 | 1.67 | –
316.15 K, x1 = 0.008 | 2.97 | –
316.15 K, x1 = 0.019 | 4.73 | –
316.15 K, x2 = 0.704 | 1.18 | –
316.15 K, x2 = 0.796 | 2.17 | –
316.15 K, x2 = 0.861 | 3.84 | –
316.15 K, x2 = 0.892 | 4.75 | –
316.15 K, x2 = 0.929 | 5.63 | –
316.15 K, x2 = 0.968 | 5.71 | –
317.15 K, x1 = 0.008 | 3 | –
317.15 K, x1 = 0.019 | 4.82 | –
317.15 K, x2 = 0.704 | 1.22 | –
317.15 K, x2 = 0.785 | 2.1 | –
317.15 K, x2 = 0.796 | 2.22 | –
317.15 K, x2 = 0.861 | 3.94 | –
317.15 K, x2 = 0.892 | 4.86 | –
317.15 K, x2 = 0.929 | 5.78 | –
318.15 K, x1 = 0.004 | 1.72 | –
318.15 K, x1 = 0.008 | 3.06 | –
318.15 K, x1 = 0.019 | 4.92 | –
318.15 K, x2 = 0.704 | 1.27 | –
318.15 K, x2 = 0.785 | 2.15 | –
318.15 K, x2 = 0.796 | 2.29 | –
318.15 K, x2 = 0.861 | 4.05 | –
318.15 K, x2 = 0.892 | 4.99 | –
318.15 K, x2 = 0.951 | 6.37 | –
318.15 K, x2 = 0.968 | 5.94 | –
319.15 K, x1 = 0.004 | 1.76 | –
319.15 K, x1 = 0.008 | 3.11 | –
319.15 K, x1 = 0.019 | 5.07 | –
319.15 K, x2 = 0.785 | 2.21 | –
319.15 K, x2 = 0.796 | 2.35 | –
319.15 K, x2 = 0.892 | 5.12 | –
319.15 K, x2 = 0.929 | 6.06 | –
319.15 K, x2 = 0.951 | 6.73 | –
320.15 K, x1 = 0.008 | 3.17 | –
320.15 K, x2 = 0.785 | 2.28 | –
320.15 K, x2 = 0.796 | 2.4 | –
320.15 K, x2 = 0.861 | 4.25 | –
320.15 K, x2 = 0.929 | 6.2 | –
320.15 K, x2 = 0.951 | 6.7 | –
321.15 K, x1 = 0.004 | 1.82 | –
321.15 K, x1 = 0.008 | 3.21 | –
321.15 K, x1 = 0.019 | 5.2 | –
321.15 K, x2 = 0.704 | 1.39 | –
321.15 K, x2 = 0.785 | 2.36 | –
321.15 K, x2 = 0.861 | 4.38 | –
321.15 K, x2 = 0.892 | 5.35 | –
321.15 K, x2 = 0.929 | 6.32 | –
321.15 K, x2 = 0.951 | 6.78 | –
322.15 K, x1 = 0.004 | 1.85 | –
322.15 K, x1 = 0.008 | 3.28 | –
322.15 K, x1 = 0.019 | 5.28 | –
322.15 K, x2 = 0.785 | 2.44 | –
322.15 K, x2 = 0.861 | 4.47 | –
322.15 K, x2 = 0.951 | 6.94 | –
322.15 K, x2 = 0.968 | 6.41 | –
323.15 K, x1 = 0.004 | 1.88 | –
323.15 K, x1 = 0.008 | 3.33 | –
323.15 K, x1 = 0.019 | 5.4 | –
323.15 K, x2 = 0.5596 | – | 19
323.15 K, x2 = 0.6542 | – | 12.84
323.15 K, x2 = 0.7015 | – | 10.57
323.15 K, x2 = 0.704 | 1.49 | –
323.15 K, x2 = 0.7495 | – | 8.22
323.15 K, x2 = 0.796 | 2.62 | –
323.15 K, x2 = 0.8521 | – | 4.18
323.15 K, x2 = 0.861 | 4.6 | –
323.15 K, x2 = 0.892 | 5.62 | –
323.15 K, x2 = 0.9004 | – | 2.87
323.15 K, x2 = 0.9254 | – | 2.13
323.15 K, x2 = 0.929 | 6.51 | –
323.15 K, x2 = 0.968 | 6.56 | –
323.15 K, x2 = 0.975 | – | 0.939
324.15 K, x2 = 0.704 | 1.54 | –
324.15 K, x2 = 0.785 | 2.57 | –
324.15 K, x2 = 0.796 | 2.68 | –
324.15 K, x2 = 0.861 | 4.7 | –
324.15 K, x2 = 0.929 | 6.65 | –
324.15 K, x2 = 0.951 | 7.19 | –
324.15 K, x2 = 0.968 | 6.6 | –
325.15 K, x1 = 0.004 | 1.94 | –
325.15 K, x2 = 0.785 | 2.63 | –
325.15 K, x2 = 0.861 | 4.82 | –
325.15 K, x2 = 0.892 | 5.85 | –
325.15 K, x2 = 0.951 | 7.31 | –
325.15 K, x2 = 0.968 | 6.74 | –
326.15 K, x1 = 0.008 | 3.43 | –
326.15 K, x1 = 0.019 | 5.63 | –
326.15 K, x2 = 0.704 | 1.63 | –
326.15 K, x2 = 0.785 | 2.7 | –
326.15 K, x2 = 0.796 | 2.83 | –
326.15 K, x2 = 0.861 | 4.9 | –
326.15 K, x2 = 0.892 | 5.98 | –
327.15 K, x1 = 0.004 | 1.99 | –
327.15 K, x1 = 0.008 | 3.54 | –
327.15 K, x1 = 0.019 | 5.55 | –
327.15 K, x2 = 0.785 | 2.75 | –
327.15 K, x2 = 0.796 | 2.9 | –
327.15 K, x2 = 0.892 | 6.11 | –
327.15 K, x2 = 0.968 | 6.87 | –
328.15 K, x1 = 0.004 | 2.01 | –
328.15 K, x1 = 0.008 | 3.6 | –
328.15 K, x2 = 0.704 | 1.74 | –
328.15 K, x2 = 0.785 | 2.83 | –
